Measurements reported in patent US20060029576A1, “Biological control of pythium disease in crops” (HER MAJESTY THE QUEEN IN RIGHT OF CANADA, THE MINISTER OF …, priority 2004, published 2006).

Key:
Type in all cases: in vivo
Pythium spp. [1] = assay: Seed treatment of sugar beet, field naturally infested with Pythium spp. (2001 field experiments); conditions: 4 weeks after planting
Experimental: (§1) The selected strains of R. leguminosarum bv. viceae (R12, R20, and R21) effective against Pythium damping-off of sugar beet in indoor experiments were tested for control of damping-off of sugar beet and field pea in fields naturally infested with Pythium spp. at the Lethbridge Research Centre, Alberta. […] (Bardin et al. 2003). The seeds were coated with the bacterial slurry as described previously using 2.4 and 9.5 mL bacterial slurry/100 seeds of sugar beet and field pea, respectively. The seeds were dried overnight at room temperature on a metallic mesh, which was placed on a paper towel to absorb the excess slurry. The number of bacteria coated onto the seeds was similar for the four bacterial strains, ranging from 1.4×10^6±0.2×10^6 to 2.3×10^7±0.2×10^7 cfu/seed for sugar beets and 3.0×10^7±0.3×10^7 to 1.2×10^8±0.4×10^8 cfu/seed for field peas. The coated seeds were then stored at 4° C. until planting. Bacterial counts on the seeds were determined by vortexing five coated seeds in 5 mL of distilled sterile water for 30 seconds, and by plating serial dilutions on TY agar medium in Petri dishes for Rhizobium strains and on PDA in Petri dishes for P. fluorescens. […] Seedling emergence was recorded 4 weeks after planting and was compared with the uninoculated and fungicide controls. […]

[2] = system: Pythium spp. (predominantly Pythium sp. ‘group G’); assay: Seed treatment of lentil cv. Laird, damping-off field experiment 2004
Experimental: (§2) The strains of Rhizobium leguminosarum bv. viceae used for the study were 99A1, R12, R20, and R21. Strain 99A1 was originated from the commercial pea inoculant produced by Agrium, Inc. Calgary, Alberta. Bacterial cultures were grown on tryptone-yeast agar (TYA) (Beringer, 1974) in Petri dishes for 48 h at room temperature (20±2° C.). The resulting colonies were suspended in 5 ml per dish of 1% methyl cellulose (Sigma-Aldrich, Milwaukee, Wis.) in sterile distilled water, and scraped gently with a spatula to obtain bacterial slurries. Seeds of field pea cv. Trapper and lentil cv. Laird were soaked for 20 minutes in the slurries, spread on a metallic mesh sheet with paper towel underneath to absorb the excess slurry, and air-dried overnight under a fume hood. Enumeration of bacteria coated onto seeds was done by placing 5 seeds in a test tube with 5 ml of sterile distilled water, vortexing for 30 sec, and plating serial dilutions on TYA, 0.1 ml per 9-cm dish. After incubation at room temperature for 3 days, bacterial colonies developed in each dish were counted. There were two replicates for each treatment.
(§3) Field experiments were conducted at the Agriculture and Agri-Food Canada Research Centre near Lethbridge, Alberta, Canada, in a field naturally infested with Pythium spp. (predominantly Pythium sp. ‘group G’). For the pea experiment, seeds were planted using a plot seeder on 28 May 2004, in 4-row plots with a row length of 5 m, a row spacing of 22.5 cm, and a plant spacing of 5 cm (i.e. 20 seeds/m). Untreated seeds and fungicide-treated seeds (Thiram™ at the rate of 30 g/25 kg seed) (Gustafson; Calgary, Alberta, Canada) were used as controls. Treatments were arranged in a randomized block design with 6 replicates. For the lentil experiment, seeds were planted on the same date and using the same parameters as for field pea.
(§4) Seedling emergence for each plot was determined. The number of healthy seedlings and the number of wilted seedlings were counted in the middle 3 m of each row, and the percent loss due to pre-emergent and post-emergent damping-off were calculated, as well as the final stand establishment. The causal agent of seedling death was determined by collecting 10 non-emerged seedlings and all of the wilted seedlings from each plot, washing in running water, surface sterilizing in 70% ethanol for 90 sec, incubating on potato dextrose agar (PDA) in Petri dishes at room temperature for 7 days, and examining the organisms derived from each sample. Results of reisolation of diseased seedlings were used to calculate the incidence of damping-off due to Pythium spp. for each plot.
(§5) Seedling height for each plot was determined (6-node stage for peas; 5-node stage for lentils). For each row, ten seedlings were randomly selected and the distance from the first node to the terminal branch of each seedling was measured.
(§6) Differences between treatments for incidence of damping-off, seedling emergence and seedling height data were analyzed for statistical significance using analysis of variance (ANOVA) and means of treatments for each set of data were separated using Duncan's multiple range test at the P=0.05 level. All statistical analyses were done using SAS Statistical Analysis Software, Version 8.2 (SAS Institute Inc., Cary, N.C. 2001).

Pythium spp. [3] = assay: Seed treatment of field pea, field naturally infested with Pythium spp. (2001 field experiments); conditions: 4 weeks after planting
Experimental: as §1

[4] = system: Pythium spp. (predominantly Pythium sp. ‘group G’); assay: Seed treatment of field pea cv. Trapper, damping-off field experiment 2004; conditions: for Plant Height (cm): 6-node stage (4 weeks after planting)
Experimental: as §2, §3, §4, §5, §6

## CN(C)C(=S)SSC(=S)N(C)C [Thiram]
Pythium spp. [1]; untreated control 6.5
  Emergence (%) Sugar beet (Beta vulgaris) August 2001: 27.0a %
Pythium spp. [1]; untreated control 10.0
  Emergence (%) Sugar beet (Beta vulgaris) May 2001: 28.6a %
[2]; 5-node stage (4 weeks after planting), control 11.2
  Plant Height (cm): 11.4 a cm
[2]; control 2.7
  Damping-off (%) Post-emergent: 2.6%
[2]; control 35.3, listed as Fungicide (Thiram)
  Damping-off (%) by Pythium: 22.8 d %
[2]; control 35.3, listed as fungicide
  Damping-off (%) by Pythium: 22.8%
[2]; control 46.3
  Damping-off (%) Pre-emergent: 34.2%
[2]; control 46.3, listed as Fungicide (Thiram)
  Damping-off (%) Pre-emergent: 34.2 c %
[2]; control 51.0
  Final Stand (%): 63.2 d %
Pythium spp. [3]; untreated control 12.8
  Emergence (%) Pea (Pisum sativum) August 2001: 48.3a %
Pythium spp. [3]; untreated control 41.4
  Emergence (%) Pea (Pisum sativum) May 2001: 71.4a %
[4]; control 11.1
  Plant Height (cm): 14.6 cm
[4]; control 11.1, listed as Fungicide (Thiram)
  Plant Height (cm): 14.6 c cm
[4]; control 0.2
  Damping-off (%) Post-emergent: 0.6%
[4]; control 37.8
  Final Stand (%): 79.1 c %
[4]; control 55.4, listed as Fungicide (Thiram)
  Damping-off (%) by Pythium: 16.7 c %
[4]; control 55.4, listed as fungicide
  Damping-off (%) by Pythium: 16.7%
[4]; control 62.0
  Damping-off (%) Pre-emergent: 20.3%
[4]; control 62.0, listed as Fungicide (Thiram)
  Damping-off (%) Pre-emergent: 20.3 c %
